Values quoted from earlier work as cited in patent US7691896B2, “Analogs of salinosporamide A” (President and Fellows of Harvard College, priority 2005, dated 2010).
Peptide text beside a SMILES is read from it. * marks the point of attachment. Cbz = O=C(OCc1ccccc1)*

System: PC12 cells
Settings: Tsubuki et al. 1993

For CC(C)C[C@@H](C=O)NC(=O)[C@H](CC(C)C)NC(=O)[C@H](CC(C)C)NC(=O)OCc1ccccc1 [benzyloxycarbonyl (Z)-Leu-Leu-leucinal] (Cbz-Leu-Leu-Leu-aldehyde), the “optimal concentration inducing neurite outgrowth” value is given as 30 nM.
